The record followed here is ChEMBL document CHEMBL1201862, “PubChem BioAssay data set” (2004).

Test systems include CAKI-1; DU-145; HCC 2998; HOP-92; Hs-578T; LOX IMVI; MOLT-4; Malme-3M; NCI-H23; OVCAR-5; PC-3; SF-539; SNB-19; TK-10; UACC-62; UO-31; NCI-H460; SK-MEL-28; SNB-75; SR.
Holding throughout (test): NCI tumour cell line growth inhibition, 48 h

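Test compounds were applied to cells in 96-well plates for 48 hours at 5 doses. Here, GI50 denotes the concentration required for 50% inhibition of growth.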 Activity calls are given as the source filed them. Cut-off read from the data, not from the text of the source: active = GI50 up to about 1.1 µM and inactive = higher.

As for `CC1(C)CC2(C)OC(=N)C1(C#N)C2(C#N)C#N` (stereo unspecified), the GI50 was 1.02 µM (active) in the test with CAKI-1; 14.6 µM (inactive) in the test on DU-145; 12.1 µM (inactive) in the test with HCC 2998; 1.57 µM (inactive) in the test on HOP-92; 13 µM (inactive) with Hs-578T; 1.68 µM (inactive) in the test on LOX IMVI. For the same molecule, the GI50 with MOLT-4 is 9.53 µM (inactive); in the test on Malme-3M, 12.3 µM (inactive); with NCI-H23 it was 8.32 µM (inactive); in the test with OVCAR-5, 14.3 µM (inactive); in the test with PC-3, 16.1 µM (inactive); in the test with SF-539, 12.1 µM (inactive). Besides, the GI50 in the test on SNB-19 was 16.2 µM (inactive); in the test with TK-10, 10.8 µM (inactive); in the test with UACC-62, 12.4 µM (inactive); in the test on UO-31, 4.26 µM (inactive).

On to `Cc1nn(C2OC(CO)C(O)C(F)C2O)c(=O)[nH]c1=O` (stereo unspecified), for which the GI50 with CAKI-1, in the test on DU-145, in the test on HCC 2998, in the test with HOP-92, with Hs-578T and in the test with LOX IMVI was > 100 µM (inactive) in each case. In addition, the GI50 in the test on MOLT-4 is 0.504 µM (active); in the test with Malme-3M, > 100 µM (inactive); in the test on NCI-H23, > 100 µM (inactive); with NCI-H460 it was > 100 µM (inactive); in the test on OVCAR-5 it was > 100 µM (inactive); with PC-3, > 100 µM (inactive). The GI50 in the test with SF-539, in the test with SK-MEL-28, with SNB-19, in the test with TK-10, in the test on UACC-62 and in the test with UO-31 was > 100 µM (inactive) each time.

Turning to `CC1(C)CC(O)C(C)(C)[C@@H](O)C1` (stereo partly specified), the GI50 in the test with CAKI-1, in the test with DU-145, in the test with HCC 2998, in the test on Hs-578T, with LOX IMVI and in the test on MOLT-4 was > 100 µM (inactive) each time. Further, the GI50 with Malme-3M, in the test with NCI-H23, with NCI-H460, with OVCAR-5, in the test with PC-3 and with SF-539 was > 100 µM (inactive) in each case. The GI50 with SK-MEL-28, in the test with SNB-19, in the test with SNB-75, in the test with TK-10, in the test on UACC-62 and in the test with UO-31 was > 100 µM (inactive) throughout.

Regarding `CC1=C(N2CC2)C(=O)c2nc3n(c2C1=O)CCC3O` (stereo unspecified), the GI50 is 0.275 µM (active) in the test with CAKI-1; 0.0111 µM (active) with DU-145; 0.151 µM (active) in the test with HCC 2998; 2.23 µM (inactive) with HOP-92; 0.0239 µM (active) with Hs-578T; 0.619 µM (active) in the test on LOX IMVI. Further, the GI50 in the test with MOLT-4 is 0.912 µM (active); in the test on Malme-3M, 0.176 µM (active); in the test on NCI-H23, 0.104 µM (active); in the test with NCI-H460, 0.092 µM (active); in the test on OVCAR-5, 0.423 µM (active); in the test on SF-539 it was 0.254 µM (active). Moreover, the GI50 is 0.252 µM (active) with SK-MEL-28; 0.269 µM (active) in the test with SNB-19; 0.485 µM (active) in the test with SNB-75; 2.25 µM (inactive) in the test on SR; 0.09 µM (active) in the test on TK-10; 0.168 µM (active) in the test with UACC-62. For the same molecule, the GI50 in the test on UO-31 was 0.388 µM (active).
